# Assay results as given in patent US20130204017A1, “GLYCERYL ASCORBIC ACID ACYLATED DERIVATIVE OR ITS SALT, PRODUCTION METHOD THEREOF, AND COSMETICS” (SEIWA KASEI COMPANY, LIMITED, priority 2012, published 2013).
# Columns and labels:
# [1] = system: Normal human dermal fibroblasts; assay: Collagen production evaluation test (Sircol collagen assay); assay type: cell-based; conditions: sample 100 μM, cultured 48 hours; for activity at 100 µM: Homo sapiens, Fibroblast, read-out: Collagen production promoting effect (collagen production amount, control group is 100%)
# Protocol: The collagen production promoting effects of the glyceryl ascorbic acid acylated derivatives of the present invention were evaluated, according to the following procedure. As comparison, arbutin, ascorbic acid, sodium ascorbate, magnesium ascorbyl phosphate, glucosyl ascorbic acid, 3-O-glyceryl ascorbic acid and 2-O-glyceryl ascorbic acid were used like in Test Example 1.
# Normal human dermal fibroblasts were regulated with a 10% (v/v) fetal bovine serum (manufactured by Invitrogen)-containing D-MEM so as to give a cell density of 2.5×10^4 cells/well, then, pre-incubation for 24 hours was performed on a 96-well plate. After the medium was removed, a sample regulated with a 5% (v/v) fetal bovine serum-containing D-MEM to a concentration of 100 μM was added to each well, then, cultured for 48 hours at 37° C. and 5% CO2. After completion of culturing, the amount of free collagen was measured using Sircol collagen assay kit (manufactured by Biocolor).
# The collagen production amount in applying a sample at a concentration of 100 μM is obtained as % value when the control group is 100%, and the results are shown in Table 4 based on the following standard.
# B16 melanoma 4A5 cell = assay: Melanin production suppressing evaluation test (theophylline-induced melanine production); assay type: cell-based, mouse; conditions: sample at a concentration of 100 μl or less; 0.2 mM theophylline; culturing 3 days
# Protocol: As a test for a whitening effect, evaluation of the action of B16 melanoma 4A5 cell on theophylline-induced melanine production was carried out on a glyceryl ascorbic acid acylated derivative of the present invention, according to the following procedure. The same evaluations were carried out also on arbutin, ascorbic acid, sodium ascorbate, magnesium ascorbyl phosphate, glucosyl ascorbic acid, and 3-O-glyceryl ascorbic acid and 2-O-glyceryl ascorbic acid obtained in the Synthesis Examples mentioned above, as comparison.
# (1) B16 mouse melanoma 4A5 strain was sowed onto a 48-well plate at a cell density of 2.0×10^4 cells/well. (2) Culturing was performed for 24 hours with Dulbecco's Modified Eagle's medium (manufactured by SIGMA. Hereinafter, abbreviated as D-MEM) containing 10% fetal bovine serum (manufactured by Roshe Diagnostics). Then, it was changed to 0.2 mM theophylline and a 10% fetal bovine serum-containing D-MEM which contains a sample of given concentration. (3) After culturing for 3 days in the co-existence of a sample, the medium was removed using an aspirator. Then, after distilled water was added, cells were broken by an ultrasonic wave. (4) Thereafter, the amount of protein was determined using BCA protein assay kit (manufactured by PIERCE), and the produced amount of melanine was measured by an alkali solubilizing method described later. To the cell-destructed solution was added sodium hydroxide so as to give a final concentration of 2 mol/L and the mixture was dissolved by heating (60° C., 15 minutes), then, the absorbance at 450 nm was measured using a micro plate reader. The melanine amount was calculated from a calibration curve made using synthetic melanine (SIGMA) as a standard. The melanine amount per unit protein was calculated by dividing the melanine amount by the protein amount. (5) The melanine production suppressing rate was calculated according to the following formula.
# Melanine production suppressing rate(%)=[1−(A−B)/(C−B)]×100
# [wherein, A represents the melanine amount per unit protein (g/g) in adding a sample, B represents the melanine amount per unit protein (g/g) in the normal group, and C represents the melanine amount per unit protein (g/g) in the control group.]
# The normal group means the case where neither theophylline nor sample was added.(that is; theophylline(−) and sample(−))
# The control group means the case where neither sample was not added but theophylline was added.(that is; theophylline (+) and sample(−))
# In the following Tables, the melanine production suppressing rate in applying a sample at a concentration of […] or less is expressed as described below.
# [2] = Stability test: odor and color change of 2% aqueous solution stored at 50° C.; assay type: physicochemical; conditions: pH7, ten panelists
# Protocol: Using 2-O-glyceryl-6-O-octanoyl ascorbic acid obtained in Example 2 and 2-O-glyceryl-6-O-octadecanoyl ascorbic acid obtained in Example 9, an evaluation was made on the stability of odor and color change when stored at 50° C. for 4 weeks, according to the following procedure. For comparison, magnesium ascorbyl phosphate, ascorbic acid and 3-O-glyceryl ascorbic acid were used.
# Aqueous solutions (2%) of various test samples were adjusted to pH7 with a dilute sodium hydroxide aqueous solution or a dilute hydrochloric acid aqueous solution, and charged into 50 mL screw tubes. The tubes were sealed and stored at 50° C. for 4 weeks. The odor and degree of color change immediately after preparation, after storage for two weeks and after storage for four weeks were evaluated by ten panelists based on the following methods and according to the following criterion.
# 3: almost no change as compared with that immediately after preparation
# 2: color change is observed as compared with that immediately after preparation
# 1: intense color change is observed as compared with that immediately after preparation
# Based on the evaluation results, classification was conducted as shown below.
# ◯: total point of 10 panelists is 25 or more
# Δ: total point of 10 panelists is 16 to 24
# x: total point of 10 panelists is 15 or less
# [3] = In vivo moisturizing test (stratum corneum water content, forearm); conditions: 5 g in 100 mL water, pH 7, 0.3 mL on forearm, 10 subjects
# Protocol: An in vitro moisturizing test and an in vivo moisturizing test of the glyceryl ascorbic acid acylated derivatives of Examples 1 to 6 were carried out according to the following manner. For comparison, sodium ascorbate, magnesium ascorbyl phosphate, glucosyl ascorbic acid, 3-O-glyceryl ascorbic acid, 2-O-glyceryl ascorbic acid and 3-O-cetyl ascorbic acid were used.
# Each test sample (5 g) was dissolved in 100 mL of water, and pH thereof was adjusted to 7 with a dilute sodium hydroxide aqueous solution or a dilute hydrochloric acid aqueous solution to prepare a sample solution. A paper filter of 1 cm×1 cm was placed on a forearm portion and 0.3 mL of the prepared sample solution was applied on this, and covered and fixed by a polyamide film. Then, 3 hours and 8 hours after, the stratum corneum water content at the sample-applied portion was measured using CORNEOMETER CM825 (manufactured by Integral Corporation). The test was carried out with 10 subjects, and evaluated according to the following criterion (evaluation standard).
# 3: Stratum corneum water content increased by 15% or more, based on the water content before sample application
# 2: Stratum corneum water content increased by 0 to less than 15%, based on the water content before sample application
# 1: There was no change or there was a reduction in stratum corneum water content, before and after sample application.
# Based on the evaluation results, classification was set as described below.
# ◯: Total points of 10 subjects is 25 or more
# Δ: Total points of 10 subjects is 16 to 24
# x: Total points of 10 subjects is 15 or less
# [4] = storage period 0 (immediately after preparation)
Compound,activity at 100 µM [1] [%],Whitening effect (melanine production suppressing rate) (B16 melanoma 4A5 cell),also measured
"OC[C@H]1O[C@@H](Oc2ccc(O)cc2)[C@H](O)[C@@H](O)[C@@H]1O [Arbutin, reference compound]",< 100,⊚ (50% or more),
O=C1O[C@H]([C@@H](O)CO)C(O)=C1O [Ascorbic acid],100 to 200,Δ (Less than 30%),"Odor ([2]; storage 2 weeks at 50° C.): Δ (total point of 10 panelists is 16 to 24); Color change [2, 4]: ◯ (total point of 10 panelists is 25 or more); Odor [2, 4]: ◯ (total point of 10 panelists is 25 or more)"
"CCCC(=O)OC[C@H](O)[C@H]1OC(=O)C(OCC(O)CO)=C1O (some centres unmarked) [Example 1, 2-O-glyceryl-6-O-butanoyl ascorbic acid]",100 to 200,◯ (30 to 49%),in vivo moisturizing (stratum corneum water content) after 3 hours ([3]; 3 hours): ◯ (Total points of 10 subjects is 25 or more); in vivo moisturizing (stratum corneum water content) after 8 hours ([3]; 8 hours): ◯ (Total points of 10 subjects is 25 or more)
"CCCCCCCCCCCCCC(=O)OC[C@H](O)[C@H]1OC(=O)C(OCC(O)CO)=C1O (some centres unmarked) [Example 7, 2-O-glyceryl-6-O-tetradecanoyl ascorbic acid]",,⊚ (50% or more),
"CCCCCCCCCCCCCCCCCC(=O)OC[C@H](O)[C@H]1OC(=O)C(OCC(O)CO)=C1O (some centres unmarked) [Example 9, 2-O-glyceryl-6-O-octadecanoyl ascorbic acid]",,⊚ (50% or more),"Color change ([2]; storage 2 weeks at 50° C.): ◯ (total point of 10 panelists is 25 or more); Odor ([2]; storage 2 weeks at 50° C.): ◯ (total point of 10 panelists is 25 or more); Color change ([2]; storage 4 weeks at 50° C.): ◯ (total point of 10 panelists is 25 or more); Odor ([2]; storage 4 weeks at 50° C.): ◯ (total point of 10 panelists is 25 or more); Color change [2, 4]: ◯ (total point of 10 panelists is 25 or more); Odor [2, 4]: ◯ (total point of 10 panelists is 25 or more)"
"CCCCCCCC/C=C\CCCCCCCC(=O)OC[C@H](O)[C@H]1OC(=O)C(OCC(O)CO)=C1O (some centres unmarked) [Example 10, 2-O-glyceryl-6-O-oleoyl ascorbic acid]",,⊚ (50% or more),
"CCCC(=O)OCC(O)COC1=C(O)[C@@H]([C@@H](O)COC(=O)CCC)OC1=O (some centres unmarked) [Example 11, 2-O-(3′-O-butanoylglyceryl)-6-O-butanoyl ascorbic acid]",,◯ (30 to 49%),
"CCCC(=O)OCC(O)COC1=C(OC(=O)CCC)[C@@H]([C@@H](O)COC(=O)CCC)OC1=O (some centres unmarked) [Example 13, 2-O-(3′-O-butanoylglyceryl)-3,6-di-O-butanoyl ascorbic acid]",100 to 200,⊚ (50% or more),
"CCCCCCCC(=O)OCC(O)COC1=C(O)[C@@H]([C@@H](O)COC(=O)CCC)OC1=O (some centres unmarked) [Example 15, 2-O-(3′-O-octanoylglyceryl)-6-O-butanoyl ascorbic acid]",100 to 200,,
"CCCCCCCCCCCCCCCC(=O)OCC(O)COC1=C(O)[C@@H]([C@@H](O)COC(=O)CCC)OC1=O (some centres unmarked) [Example 16, 2-O-(3′-O-hexadecanoylglyceryl)-6-O-butanoyl ascorbic acid]",,⊚ (50% or more),
"CCCCCCCCCCCC(=O)OC[C@H](O)[C@H]1OC(=O)C(OCC(O)COC(=O)CCC)=C1O (some centres unmarked) [Example 17, 2-O-(3′-O-butanoylglyceryl)-6-O-dodecanoyl ascorbic acid]",100 to 200,,
"CCCCCCCC(=O)OC1=C(OCC(O)CO)C(=O)O[C@@H]1[C@@H](O)CO (some centres unmarked) [Example 18, 2-O-glyceryl-3-O-octanoyl ascorbic acid]",100 to 200,,
"CCCCCCCCCCCC(=O)OC1=C(OCC(O)CO)C(=O)OC1C(O)COC(=O)CCCCCCC (centres unmarked) [Example 19, 2-O-glyceryl-3-O-dodecanoyl-6-O-octanoy ascorbic acid]",,⊚ (50% or more),
"CCCC(=O)OC[C@H](O)[C@H]1OC(=O)C(O)=C1OCC(O)CO (some centres unmarked) [Example 20, 3-O-glyceryl-6-O-butanoyl ascorbic acid]",100 to 200,,
"CCCCCCCC(=O)OC[C@H](O)[C@H]1OC(=O)C(O)=C1OCC(O)CO (some centres unmarked) [Example 21, 3-O-glyceryl-6-O-octanoyl ascorbic acid]",,⊚ (50% or more),
"CCCCCCCCCCCCCCCC(=O)OC[C@H](O)[C@H]1OC(=O)C(O)=C1OCC(O)CO (some centres unmarked) [Example 22, 3-O-glyceryl-6-O-hexadecanoyl ascorbic acid]",100 to 200,,
"CCCCCCCCCCCC(=O)OCC(O)COC1=C(O)C(=O)O[C@@H]1[C@@H](O)COC(=O)CCC (some centres unmarked) [Example 23, 3-O-(3′-O-dodecanoylglyceryl)-6-O-butanoyl ascorbic acid]",100 to 200,,
O=C1O[C@H]([C@@H](O)CO)C([O-])=C1OP(=O)([O-])[O-].O=C1O[C@H]([C@@H](O)CO)C([O-])=C1OP(=O)([O-])[O-].[Mg+2].[Mg+2].[Mg+2] [Magnesium ascorbyl phosphate],,Δ (Less than 30%),"Collagen production promoting effect (collagen production amount, control group is 100%) [1]: + (100 to 200%); Color change ([2]; storage 2 weeks at 50° C.): Δ (total point of 10 panelists is 16 to 24); Odor ([2]; storage 2 weeks at 50° C.): ◯ (total point of 10 panelists is 25 or more); Odor ([2]; storage 4 weeks at 50° C.): ◯ (total point of 10 panelists is 25 or more); Color change [2, 4]: ◯ (total point of 10 panelists is 25 or more); Odor [2, 4]: ◯ (total point of 10 panelists is 25 or more)"
"O=C1O[C@H]([C@@H](O)CO)C([O-])=C1O.[Na+] [Sodium ascorbate, reference compound]",100 to 200,Δ (Less than 30%),
